Results taken from US20110281869A1, “TETRAHYDROISOQUINOLINES AS ANTIMALARIAL AGENTS” (priority 2008, published 2011).

test system: P. falciparum K1; assay: Plasmodium falciparum in vitro assay ([3H] hypoxanthine incorporation); format: cell-based; conditions: Plasmodium falciparum, K1, read-out: IC50 (nM) on K1
Experimental: In vitro antimalarial activity: Plasmodium falciparum in vitro assay In vitro activity against erythrocytic stages of P. falciparum is determined using a [^3H] hypoxanthine incorporation assay. One strain resistant to chloroquine and pyrimethamine (P. falciparum K1) is used in the assays, and all test compounds are compared for activity with the standard drugs chloroquine (sigma C6628) and artemisinin (sigma-36, 159-3). Compounds are diluted in DMSO to 1 mM and added to parasite cultures incubated in RPMI 1640 medium without hypoxanthine, supplemented with HEPES (5.94 g/L), NaHCO3 (2.1 g/L), neomycin (100 U/mL), Albumax (5 g/L) and washed human red cells at 2.5% hematocrit (0.3% parasitaemia). Seven serial doubling dilutions of each drug are prepared in 96-well microtitre plates and incubated in a humidifying atmosphere at 37° C.; 4% CO2, 3% O2, 93% N2.
After 48 h, 50 μl of [^3H] hypoxanthine (0.5 μCi) is added to each well of a plate. The plates are incubated for a further 24 h under the same conditions. The plates are then harvested with a Betaplate cell harvester (Wallac) and washed with distilled water. The dried filters are inserted into a plastic foil with 10 mL of scintillation fluid, and counted in a Betaplate liquid scintillation counter. IC50 values are calculated from sigmoidal inhibition curves using Microsoft Excel.

SMILES | IC50
CCN(CC)CCCC(C)Nc1ccnc2cc(Cl)ccc12 (centres unmarked) [Chloroquine, chloroquine, reference compound] | 300 nM

same assay, conditions: Plasmodium falciparum; erythrocytic stages, strain K1 resistant to chloroquine and pyrimethamine, human red cells; read-out: IC50 (nM) on K1

SMILES | IC50
Cn1cc(CC(C(=O)N2CCc3ccccc3C2)N(Cc2ccc(-c3ccncc3)cc2)C(=O)C=Cc2ccc(C(F)(F)F)cc2)cn1 (racemic) [Example 80, rac-N-[2-(3,4-Dihydro-1H-isoquinolin-2-yl)-1-(1-methyl-1H-pyrazol-4-ylmethyl)-2-oxo-ethyl]-N-(4-pyridin-4-yl-benzyl)-3-(4-trifluoromethyl-phenyl)-acrylamide] | 107 nM
Cn1nccc1CC(C(=O)N1CCc2ccccc2C1)N(Cc1ccc(-c2ccncc2)cc1)C(=O)C=Cc1ccc(C(F)(F)F)cc1 (racemic) [Example 84, rac-N-[2-(3,4-Dihydro-1H-isoquinolin-2-yl)-1-(2-methyl-2H-pyrazol-3-ylmethyl)-2-oxo-ethyl]-N-(4-pyridin-4-yl-benzyl)-3-(4-trifluoromethyl-phenyl)-acrylamide] | 84 nM
O=C(C(Cc1ncccn1)N(Cc1ccc(-c2ccncc2)cc1)C(=O)C=Cc1ccc(C(F)(F)F)cc1)N1CCc2ccccc2C1 (racemic) [Example 86, rac-N-[2-(3,4-Dihydro-1H-isoquinolin-2-yl)-2-oxo-1-pyrimidin-2-ylmethyl-ethyl]-N-(4-pyridin-4-yl-benzyl)-3-(4-trifluoromethyl-phenyl)-acrylamide] | 162 nM
O=C(C(Cc1ccon1)N(Cc1ccc(-c2ccncc2)cc1)C(=O)C=Cc1ccc(C(F)(F)F)cc1)N1CCc2ccccc2C1 (racemic) [Example 87, rac-N-[2-(3,4-Dihydro-1H-isoquinolin-2-yl)-1-isoxazol-3-ylmethyl-2-oxo-ethyl]-N-(4-pyridin-4-yl-benzyl)-3-(4-trifluoromethyl-phenyl)-acrylamide] | 194 nM
O=C([C@H](Cc1ccccc1)N(Cc1ccccn1)C(=O)C=Cc1ccc(C(F)(F)F)cc1)N1CCc2ccccc2C1 [Example 6, (S)—N-[1-Benzyl-2-(3,4-dihydro-1H-isoquinolin-2-yl)-2-oxo-ethyl]-N-pyridin-2-ylmethyl-3-(4-trifluoromethyl-phenyl)-acrylamide] | 25 nM

Next, values leading:

IC50 | SMILES
24 nM | Cn1ccc(CC(C(=O)N2CCc3ccccc3C2)N(Cc2ccc(-c3ccncc3)cc2)C(=O)C=Cc2ccc(C(F)(F)F)cc2)n1 (racemic) [Example 82, rac-N-[2-(3,4-Dihydro-1H-isoquinolin-2-yl)-1-(1-methyl-1H-pyrazol-3-ylmethyl)-2-oxo-ethyl]-N-(4-pyridin-4-yl-benzyl)-3-(4-trifluoromethyl-phenyl)-acrylamide]
17 nM | Cc1nc(C)c(C=CC(=O)N(Cc2ccc(-c3ccccn3)cc2)[C@@H](Cc2ccccc2)C(=O)N2CCc3ccccc3C2)s1 [Example 51, (S)—N-[1-Benzyl-2-(3,4-dihydro-1H-isoquinolin-2-yl)-2-oxo-ethyl]-3-(2,4-dimethyl-thiazol-5-yl)-N-(4-pyridin-2-yl-benzyl)-acrylamide]
14 nM | O=C([C@H](Cc1ccccc1)N(Cc1ccc(-c2ccccn2)cc1)C(=O)C=Cc1ccc(C(F)(F)F)cc1)N1CCc2cc(F)ccc2C1 [Example 10, (S)—N-[1-Benzyl-2-(6-fluoro-3,4-dihydro-1H-isoquinolin-2-yl)-2-oxo-ethyl]-N-(4-pyridin-2-yl-benzyl)-3-(4-trifluoromethyl-phenyl)-acrylamide]
14 nM | Cc1ccc(C=CC(=O)N(Cc2ccc(-c3ccccn3)cc2)[C@@H](Cc2ccccc2)C(=O)N2CCc3ccccc3C2)cn1 [Example 59, (S)—N-[1-Benzyl-2-(3,4-dihydro-1H-isoquinolin-2-yl)-2-oxo-ethyl]-3-(6-methyl-pyridin-3-yl)-N-(4-pyridin-2-yl-benzyl)-acrylamide]
12 nM | COc1ccc2c(c1)CN(C(=O)[C@H](Cc1ccccc1)N(Cc1ccc(-c3ccccn3)cc1)C(=O)C=Cc1ccc(C(F)(F)F)cc1)CC2 [Example 69, (S)—N-[1-Benzyl-2-(7-methoxy-3,4-dihydro-1H-isoquinolin-2-yl)-2-oxo-ethyl]-N-(4-pyridin-2-yl-benzyl)-3-(4-trifluoromethyl-phenyl)-acrylamide]
10 nM | COc1ccc(C=CC(=O)N(Cc2ccc(-c3ccccn3)cc2)[C@@H](Cc2ccccc2)C(=O)N2CCc3ccccc3C2)cn1 [Example 62, (S)—N-[1-Benzyl-2-(3,4-dihydro-1H-isoquinolin-2-yl)-2-oxo-ethyl]-3-(6-methoxy-pyridin-3-yl)-N-(4-pyridin-2-yl-benzyl)-acrylamide]
10 nM | Cc1c(C=CC(=O)N(Cc2ccc(-c3ccccn3)cc2)[C@@H](Cc2ccccc2)C(=O)N2CCc3ccccc3C2)cnn1C [Example 65, (S)—N-[1-Benzyl-2-(3,4-dihydro-1H-isoquinolin-2-yl)-2-oxo-ethyl]-3-(1,5-dimethyl-1H-pyrazol-4-yl)-N-(4-pyridin-2-yl-benzyl)-acrylamide]
5 nM | O=C([C@H](Cc1ccccc1)N(Cc1ccc(-c2cncnc2)cc1)C(=O)C=Cc1ccc(C(F)(F)F)nc1)N1CCc2ccccc2C1 [Example 4, (S)—N-[1-Benzyl-2-(3,4-dihydro-1H-isoquinolin-2-yl)-2-oxo-ethyl]-N-(4-pyrimidin-5-yl-benzyl)-3-(6-trifluoromethyl-pyridin-3-yl)-acrylamide]
3.5 nM | O=C([C@H](Cc1ccccc1)N(Cc1ccc(-c2ccccn2)cc1)C(=O)/C=C/c1ccc(C(F)(F)F)cc1)N1CCc2ccccc2C1 [Example 1, (S)—N-[1-Benzyl-2-(3,4-dihydro-1H-isoquinolin-2-yl)-2-oxo-ethyl]-N-(4-pyridin-2-yl-benzyl)-3-(trifluoromethyl-phenyl)-acrylamide]
2 nM | C[C@@H]1CC[C@H]2[C@@H](C)C(=O)O[C@@H]3O[C@@]4(C)CC[C@@H]1[C@]32OO4 [Artemisinin, artemisinin, reference compound]

same assay, conditions: erythrocytic stages, strain K1 resistant to chloroquine and pyrimethamine, human red cells; read-out: IC50 (nM) on K1

SMILES | IC50
COc1cc(C=CC(=O)N(Cc2ccc(-c3ccccn3)cc2)[C@@H](Cc2ccccc2)C(=O)N2CCc3ccccc3C2)cc(OC)c1 [Example 14, (S)—N-[1-Benzyl-2-(3,4-dihydro-1-H-isoquinolin-2-yl)-2-oxo-ethyl]-3-(3,5-dimethoxy-phenyl)-N-(4-pyridin-2-yl-benzyl)-acrylamide] | 18 nM
O=C([C@H](Cc1ccccc1)N(Cc1ccc(-c2ccccn2)cc1)C(=O)C=Cc1cccc(Cl)c1Cl)N1CCc2ccccc2C1 [Example 25, (S)—N-[1-Benzyl-2-(3,4-dihydro-1-H-isoquinolin-2-yl)-2-oxo-ethyl]-3-(2,3-dichloro-phenyl)-N-(4-pyridin-2-yl-benzyl)-acrylamide] | 13 nM
Cc1ccc(C=CC(=O)N(Cc2ccc(-c3ccccn3)cc2)[C@@H](Cc2ccccc2)C(=O)N2CCc3ccccc3C2)cc1 [Example 32, (S)—N-[1-Benzyl-2-(3,4-dihydro-1-H-isoquinolin-2-yl)-2-oxo-ethyl]-N-(4-pyridin-2-yl-benzyl)-3-p-tolyl-acrylamide] | 7.5 nM
CN(C)c1ccc(C=CC(=O)N(Cc2ccc(-c3ccccn3)cc2)[C@@H](Cc2ccccc2)C(=O)N2CCc3ccccc3C2)cc1 [Example 38, (S)—N-[1-Benzyl-2-(3,4-dihydro-1-H-isoquinolin-2-yl)-2-oxo-ethyl]-3-(4-dimethylamino-phenyl)-N-(4-pyridin-2-yl-benzyl)-acrylamide] | 10 nM
